Assay results taken from patent US7183318B2, “Substituted cyclic compounds, preparation method and pharmaceutical compositions containing them” (Les Laboratoires Servier, priority 1998, dated 2007).

SMILES | melting point
COC(=O)Nc1ccc2occ(CCNC(C)=O)c2c1 [Example 58, Methyl N-{3-[2-(acetylamino)ethyl]benzo[b]furan-5-yl}carbamate] | 138 to 140 °C
NC(=O)c1ccc2occ(CCNC(=O)c3ccco3)c2c1 [Example 69, 3-[2-(2-Furoylamino)ethyl]-1-benzofuran-5-carboxamide] | 110 to 112 °C
CNC(=O)c1ccc2occ(CCNC(C)=O)c2c1 [Example 71, 3-[2-(Acetylamino)ethyl]-N-methyl-1-benzofuran-5-carboxamide] | 158 to 159 °C
CC(=O)NCCc1coc2ccc(NC(=O)OC(C)(C)C)cc12 [Example 76, tert-Butyl 3-[2-(acetylamino)ethyl]-1-benzofuran-5-yl-carbamate] | 146 to 148 °C

The next lines start with the values.

melting point | SMILES
122 to 123 °C | COC(=O)c1ccc2occ(CCNC(=O)C3CCCC3)c2c1 [Example 64, Methyl 3-{2-[(cyclopentylcarbonyl)amino]ethyl}1-benzofuran-5-carboxylate]
154 to 155 °C | COC(=O)c1ccc2occ(CCNC(=O)C3CC3)c2c1 [Example 65, Methyl 3-{2-[(cyclopropylcarbonyl)amino]ethyl}-1-benzofuran-5-carboxylate]
209 to 210 °C | NC(=O)c1ccc2occ(CCNC(=O)C3CC3)c2c1 [Example 68, 3-{2-[(Cyclopropylcarbonyl)amino]ethyl}-1-benzofuran-5-carboxamide]
170 to 171 °C | CNC(=O)c1ccc2occ(CCNC(=O)C3CCCC3)c2c1 [Example 72, 3-{2-[(Cyclopentylcarbonyl)amino]ethyl}-N-methyl-1-benzofuran-5-carboxamide]
